Source: patent US7232690B1, “Method and device for detecting and isolating pharmacological compounds being contained in substance mixtures” (LTS Lohmann Therapie-Systeme AG, priority 1999, dated 2007)

Biological target: β2-adrenoreceptor (Homo sapiens, UniProt P07550)
Assay: Ultrafiltration target-binding test of extract of taraxacum with β2-adrenoreceptor membrane preparation (Example 3)
[1] = Sample 351, no receptor, extract 1.5 mg (7.5 g/l)
[2] = Sample 355, receptor 1.04 pmol (5.2 nmol/l), extract 1.5 pmol (7.5 nmol/l)
[3] = Sample 356, receptor 1.04 pmol (5.2 nmol/l), extract 1.5 pmol (7.5 nmol/l)
[4] = Sample 360, no receptor, extract 0.3 mg (1.5 g/l)
[5] = Sample 361, receptor 1.04 pmol (5.2 nmol/l), extract 0.3 mg (1.5 g/l)
[6] = Sample 362, no receptor, extract 0.6 mg (3 g/l)
[7] = Sample 363, receptor 1.04 pmol (5.2 nmol/l), extract 0.6 mg (3 g/l)
[8] = Sample 364, no receptor, extract 1.0 mg (5.0 g/l)
[9] = Sample 365, receptor 1.04 pmol (5.2 nmol/l), extract 1.0 mg (5.0 g/l)
[10] = Sample 366, receptor 1.04 pmol (5.2 nmol/l), extract 1.5 mg (7.5 g/l)
[11] = Sample 367, receptor 1.04 pmol (5.2 nmol/l), extract 1.5 mg (7.5 g/l)
[12] = Sample 369, receptor 1.04 pmol (5.2 nmol/l), extract 1.5 mg (7.5 g/l)
[13] = Sample 373, receptor 1.04 pmol (5.2 nmol/l), extract 1.5 mg (7.5 g/l)
[14] = Sample 374, receptor 0.52 pmol (2.6 nmol/l), extract 1.5 mg (7.5 g/l)
[15] = Sample 375, receptor 0.26 pmol (1.3 nmol/l), extract 1.5 mg (7.5 g/l)

β2-adrenoreceptor, sequence (P07550 whole entry): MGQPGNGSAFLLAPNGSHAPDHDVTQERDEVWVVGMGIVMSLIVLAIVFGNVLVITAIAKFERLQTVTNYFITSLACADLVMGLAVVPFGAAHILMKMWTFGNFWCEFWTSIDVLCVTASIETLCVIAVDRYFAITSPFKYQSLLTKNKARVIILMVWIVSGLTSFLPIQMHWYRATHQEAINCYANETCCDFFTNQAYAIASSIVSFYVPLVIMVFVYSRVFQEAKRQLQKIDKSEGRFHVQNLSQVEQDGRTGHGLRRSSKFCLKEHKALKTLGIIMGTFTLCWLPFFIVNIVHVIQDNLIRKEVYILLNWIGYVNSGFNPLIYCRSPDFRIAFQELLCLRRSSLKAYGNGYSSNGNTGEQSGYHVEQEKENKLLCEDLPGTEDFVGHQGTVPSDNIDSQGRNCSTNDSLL
Method: Substance used for the assays: • a) extr. taraxaci spir. sicc.
In the assays, the extract of taraxacum and the membrane preparation were combined in different stoichiometric ratios, dissolved in 200 μl of binding buffer (150 mM of NaCl, 50 mM of tris, pH 8.2 in water).
The receptor-ligand binding was completed by 30-minute-long incubation of the mixture at 30-34° C. The solutions were then placed on a Microcon 10 centrifugal filter and centrifuged at 9981×g for 15 min or until dryness of the filter. […] After two washing steps with binding buffer, the complexes present on the filter were separated by treatment with 200 μl of TFA (1/49.5/49.5).
The eluates from the following four filtration steps were centrifuged under vacuum until dryness, and the substances obtained were dissolved by means of ultrasound in 10 μl of the mobile phase of the HPLC (cf. Example 1), shortly before LC analysis.

## O=C(/C=C/c1ccc(O)c(O)c1)O[C@@H](C(=O)O)[C@@H](OC(=O)/C=C/c1ccc(O)c(O)c1)C(=O)O [Substance L6, trans-chicorinic acid]
[1]
  1st Wash: 15045 nmol/L
  2nd Wash: 750.8 nmol/L
  Filtrate: 5970.7 nmol/L
  Liberation: 195.0 nmol/L
[2]
  1st Wash: 451.4 nmol/L
  2nd Wash: 100.4 nmol/L
  Filtrate: 1482.0 nmol/L
  Liberation: 707.0 nmol/L
[3]
  1st Wash: 600.1 nmol/L
  2nd Wash: 202.1 nmol/L
  Filtrate: 1848.6 nmol/L
  Liberation: 2199.1 nmol/L
[4]
  1st Wash: 468.9 nmol/L
  2nd Wash: 140.3 nmol/L
  Filtrate: 2935.2 nmol/L
  Liberation: 34.7 nmol/L
[5]
  1st Wash: 146.5 nmol/L
  2nd Wash: 124.3 nmol/L
  Filtrate: 1588.2 nmol/L
  Liberation: 138.1 nmol/L
[6]
  1st Wash: 958.0 nmol/L
  2nd Wash: 351.4 nmol/L
  Filtrate: 3446.6 nmol/L
  Liberation: 85.4 nmol/L
[7]
  1st Wash: 248.3 nmol/L
  2nd Wash: 142.0 nmol/L
  Filtrate: 1180.6 nmol/L
  Liberation: 257.0 nmol/L
[8]
  1st Wash: 1377.0 nmol/L
  2nd Wash: 627.8 nmol/L
  Filtrate: 3752.4 nmol/L
  Liberation: 151.3 nmol/L
[9]
  1st Wash: 626.7 nmol/L
  2nd Wash: 141.6 nmol/L
  Filtrate: 2291.6 nmol/L
  Liberation: 439.6 nmol/L
[10]
  1st Wash: 620.0 nmol/L
  2nd Wash: 181.5 nmol/L
  Filtrate: 5581.8 nmol/L
  Liberation: 504.8 nmol/L
[11]
  1st Wash: 832.5 nmol/L
  2nd Wash: 274.6 nmol/L
  Filtrate: 5159.0 nmol/L
  Liberation: 616.8 nmol/L
[12]
  1st Wash: 478.1 nmol/L
  2nd Wash: 341.9 nmol/L
  Filtrate: 7449.7 nmol/L
  Liberation: 674.0 nmol/L
[13]
  1st Wash: 182.7 nmol/L
  2nd Wash: 277.1 nmol/L
  Filtrate: 5562.6 nmol/L
  Liberation: 2096.1 nmol/L
[14]
  1st Wash: 1062.4 nmol/L
  2nd Wash: 476.6 nmol/L
  Filtrate: 8589.0 nmol/L
  Liberation: 1015.4 nmol/L
[15]
  1st Wash: 921.1 nmol/L
  2nd Wash: 433.9 nmol/L
  Filtrate: 10838.5 nmol/L
  Liberation: 279.9 nmol/L

## COc1cc(/C=C/C(=O)OC(C(=O)O)C(OC(=O)/C=C/c2ccc(O)c(OC)c2)C(=O)O)ccc1O (stereo not drawn) [Substance L7, trans-diferoyl-tartaric acid ester]
[1]
  1st Wash: 748.2 nmol/L
  2nd Wash: 145.5 nmol/L
  Filtrate: 3802.1 nmol/L
  Liberation: 22.7 nmol/L
[2]
  1st Wash: 909.9 nmol/L
  2nd Wash: 180.4 nmol/L
  Filtrate: 1539.6 nmol/L
  Liberation: 214.5 nmol/L
[3]
  1st Wash: 1117.4 nmol/L
  2nd Wash: 295.9 nmol/L
  Filtrate: 2183.1 nmol/L
  Liberation: 510.7 nmol/L
[4]
  1st Wash: 129.6 nmol/L
  2nd Wash: 6.6 nmol/L
  Filtrate: 1268.8 nmol/L
  Liberation: 8.6 nmol/L
[5]
  1st Wash: 129.6 nmol/L
  2nd Wash: 6.6 nmol/L
  Filtrate: 1268.8 nmol/L
  Liberation: 8.6 nmol/L
[6]
  1st Wash: 176.5 nmol/L
  2nd Wash: 33.7 nmol/L
  Filtrate: 1423.2 nmol/L
  Liberation: 7.5 nmol/L
[7]
  1st Wash: 76.4 nmol/L
  2nd Wash: 104.2 nmol/L
  Filtrate: 1740.7 nmol/L
  Liberation: 16.9 nmol/L
[8]
  1st Wash: 92.7 nmol/L
  2nd Wash: 30.1 nmol/L
  Filtrate: 1829.6 nmol/L
  Liberation: 89.6 nmol/L
[9]
  1st Wash: 74.0 nmol/L
  2nd Wash: 11.2 nmol/L
  Filtrate: 2746.8 nmol/L
  Liberation: 111.9 nmol/L
[10]
  1st Wash: 1425.3 nmol/L
  2nd Wash: 213.1 nmol/L
  Filtrate: 4261.6 nmol/L
  Liberation: 168.2 nmol/L
[11]
  1st Wash: 1509.0 nmol/L
  2nd Wash: 199.2 nmol/L
  Filtrate: 6243.7 nmol/L
  Liberation: 232.9 nmol/L
[12]
  1st Wash: 986.8 nmol/L
  2nd Wash: 221.7 nmol/L
  Filtrate: 3505.8 nmol/L
  Liberation: 378.7 nmol/L
[13]
  1st Wash: 1176.5 nmol/L
  2nd Wash: 285.4 nmol/L
  Filtrate: 4900.2 nmol/L
  Liberation: 847.8 nmol/L
[14]
  1st Wash: 627.7 nmol/L
  2nd Wash: 200.9 nmol/L
  Filtrate: 5661.6 nmol/L
  Liberation: 538.8 nmol/L
[15]
  1st Wash: 631.3 nmol/L
  2nd Wash: 112.3 nmol/L
  Filtrate: 4921.4 nmol/L
  Liberation: 154.4 nmol/L
